Earlier results as cited in patent US8754055B2, “Methods, compositions, and kits for collecting and detecting oligonucleotides” (The Invention Science Fund I, LLC, priority 2008, dated 2014).
Read-outs that look alike come from different tables or passages of the source.

Assays:
[1] = 40, 8, and 1.6 μg injections once daily over 35 days
[2] = in humans
RNase A = target: T1, RNase A (Bos taurus, UniProt P61823); conditions: RNAse A catalysis, read-out: inhibition constant (Ki)
T1 sequence (P61823 27-150): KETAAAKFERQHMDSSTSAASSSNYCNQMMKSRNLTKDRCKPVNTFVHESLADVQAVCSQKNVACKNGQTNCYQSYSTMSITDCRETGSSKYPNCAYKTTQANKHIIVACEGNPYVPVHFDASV

Molecule: Nc1ccc(N=Nc2ccc(-c3ccc(O)cc3)cc2)c2ccc(S(=O)(=O)O)cc12 [8-amino-5-(4′-hydroxylbiphenyl-4-ylazo)naphthalene-2-sulfonate]
- overt toxicity [1]: without overt toxicity

Molecule: Etanercept
- half-life [2]: 70 h

Molecule: oligo(vinylsulfonic acid)
- Ki (RNase A; 0 mM sodium chloride (lower end of salt-dependent range)): ~0.01 nM
- Ki (RNase A; 100 mM sodium chloride (upper end of salt-dependent range)): ~120 nM
